As a reminder, the IC50 is the concentration that inhibits the measured activity by half.

One assay concerns JR251 or RBL cells. The assay can be described thus: Fluorescence-based assay of store-operated calcium entry (JR251 or RBL cells). The note with it: in either JR251 or RBL cells, or both. The class given is cell-based. As for the experimental part: Fluorescence-based assays are used for screening the compounds described herein, such as compounds of Formulas (I) and (II) which modulate intracellular calcium. […]
B. Fluorescence-based Assay of Store-Operated Calcium Entry in RBL-2H3 Cells.
RBL-2H3 cells are obtained from ATCC and maintained in complete medium with 10% FBS at 37° C./6% CO2.
The day prior to performing the assay, RBL-2H3 cells are plated in 50 μL of complete medium in a 384 well plate. Cells are grown at 37° C./6% CO2 overnight and grow to 50-60% confluence by the next day. On the assay day, 1.5 μM Fluo-4-AM dye (Invitrogen) in complete medium is added and incubated for 1 hour at RT. Cells are washed twice in Ca^2+-free HBSS buffer and 35 μL Ca^2+-free HBSS buffer is added to each well. 10 μL of a test compound prepared in a Ca^2+-free HBSS solution at 4.5× of the desired concentration is added to a well and incubated for 5 minutes at RT. 10 μL of thapsigargin prepared in a Ca^2+-free HBSS solution at 5.5× of the desired concentration (5.5 uM) is added to each well and incubated for an additional 25 minutes. The initial baseline fluorescence signal is measured with a FLIPR^384 (Molecular Devices) plate reader. 5 μL of 12× calcium in HBSS (12 mM) is added and changes in cellular fluorescence are measured with the FLIPR^384 plate reader. In each well, the change in the fluorescent signal as a function of time due to calcium entry into the cell is determined by calculating the difference between the fluorescent signal measured 7 seconds after calcium addition and the initial baseline fluorescence signal at time zero (t=0). This parameter is designated Upslope. The IC50 value is calculated as the concentration at which 50% of the Upslope is inhibited. […]
Consider `Cc1cc(C(F)(F)F)nn1-c1ccc(C(=O)Nc2ccc(Cl)cc2)cc1N` [3-amino-N-(4-chlorophenyl)-4-(5-methyl-3-(trifluoromethyl)-1H-pyrazol-1-yl)benzamide], for which the IC50 was < 10 µM.

In the case of `COc1cc(C(=O)Nc2ccccc2Cl)ccc1-n1nc(C)cc1C(F)(F)F` [N-(2-chlorophenyl)-3-methoxy-4-(3-methyl-5-(trifluoromethyl)-1H-pyrazol-1-yl)benzamide], the half-inhibitory concentration (IC50) is < 10 µM.

For `COc1ccc(C(=O)Nc2ccc(-n3nc(C(F)(F)F)cc3C)c(N)c2)cc1` [N-(3-amino-4-(5-methyl-3-(trifluoromethyl)-1H-pyrazol-1-yl)phenyl)-4-methoxybenzamide], the IC50 was < 10 µM.

For the compound `COc1ccc(C(=O)Nc2ccc(-n3nc(-c4ccccc4)cc3C)c(N)c2)cc1` [N-(3-amino-4-(5-methyl-3-phenyl-1H-pyrazol-1-yl)phenyl)-4-methoxybenzamide], the IC50 is < 10 µM.

As for `Cc1cc(C(F)(F)F)n(-c2ccc(C(=O)Nc3ccccc3Cl)cc2[N+](=O)[O-])n1` [N-(2-chlorophenyl)-4-(3-methyl-5-(trifluoromethyl)-1H-pyrazol-1-yl)-3-nitrobenzamide], the IC50 was < 10 µM.

For `Cc1cc(-c2ccccc2)nn1-c1ccc(NC(=O)c2cccs2)cc1N` [N-(3-amino-4-(5-methyl-3-phenyl-1H-pyrazol-1-yl)phenyl)thiophene-2-carboxamide], the IC50 was < 10 µM.

On to `COc1ccc(C(=O)Nc2ccc(-n3nc(C)cc3C(F)(F)F)c([N+](=O)[O-])c2)cc1` [4-methoxy-N-(4-(3-methyl-5-(trifluoromethyl)-1H-pyrazol-1-yl)-3-nitrophenyl)benzamide], for which the IC50 was < 10 µM.

For `Cc1cc(C(F)(F)F)n(-c2ccc(C(=O)Nc3ccccc3Cl)cc2N)n1` [3-amino-N-(2-chlorophenyl)-4-(3-methyl-5-(trifluoromethyl)-1H-pyrazol-1-yl)benzamide], the IC50 was < 10 µM.

Regarding `Cc1cc(C(F)(F)F)n(-c2ccc(NC(=O)c3ccc(Cl)cc3)cc2[N+](=O)[O-])n1` [4-Chloro-N-(4-(3-methyl-5-(trifluoromethyl)-1H-pyrazol-1-yl)-3-nitrophenyl)benzamide], the half-inhibitory concentration (IC50) was < 10 µM.

For `COc1cc(C(=O)Nc2ccccc2Cl)ccc1-n1nc(C(F)(F)F)cc1C` [N-(2-chlorophenyl)-3-methoxy-4-(5-methyl-3-(trifluoromethyl)-1H-pyrazol-1-yl)benzamide], the concentration for half-maximal inhibition (IC50) was < 10 µM.

Regarding `CCc1cc(CC)n(-c2ccc(NC(=O)c3ccc(Cl)cc3)cc2[N+](=O)[O-])n1` [4-chloro-N-(4-(3,5-diethyl-1H-pyrazol-1-yl)-3-nitrophenyl)benzamide], the IC50 is < 10 µM.

With `Cc1cc(-c2ccccc2)nn1-c1ccc(NC(=O)c2cccs2)cc1[N+](=O)[O-]` [N-(4-(5-methyl-3-phenyl-1H-pyrazol-1-yl)-3-nitrophenyl)thiophene-2-carboxamide], the IC50 is < 10 µM.

As to `COc1ccc(C(=O)Nc2ccc(-n3nc(C)cc3C(F)(F)F)c(N)c2)cc1` [N-(3-amino-4-(3-methyl-5-(trifluoromethyl)-1H-pyrazol-1-yl)phenyl)-4-methoxybenzamide], the IC50 is < 10 µM.

With `COc1cc(C(=O)Nc2ccc(Cl)cc2)ccc1-n1nc(C(F)(F)F)cc1C` [N-(4-chlorophenyl)-3-methoxy-4-(5-methyl-3-(trifluoromethyl)-1H-pyrazol-1-yl)benzamide], the IC50 is < 10 µM.

Regarding `COc1ccc(C(=O)Nc2ccc(-n3nc(C(F)(F)F)cc3C)c([N+](=O)[O-])c2)cc1` [4-methoxy-N-(4-(5-methyl-3-(trifluoromethyl)-1H-pyrazol-1-yl)-3-nitrophenyl)benzamide], the IC50 is < 10 µM.

Regarding `Cc1cc(C(F)(F)F)nn1-c1ccc(C(=O)Nc2ccccc2Cl)cc1N` [3-amino-N-(2-chlorophenyl)-4-(5-methyl-3-(trifluoromethyl)-1H-pyrazol-1-yl)benzamide], the IC50 was < 10 µM.

Take `Cc1cc(C(F)(F)F)nn1-c1ccc(C(=O)Nc2ccccc2Cl)cc1[N+](=O)[O-]` [N-(2-chlorophenyl)-4-(5-methyl-3-(trifluoromethyl)-1H-pyrazol-1-yl)-3-nitrobenzamide]: the IC50 is < 10 µM.

The test system of the next assay is Jurkat cells and colon cancer cells.
Test: not given
The note with it: cited from earlier work.
Consider `Cc1nnsc1C(=O)Nc1ccc(-n2nc(C(F)(F)F)cc2C(F)(F)F)cc1` [BTP-2], for which the “inhibition of SOCE” value is given as “inhibits”.

Another assay has the same test system.
Test: not given
The note with it: cited from earlier work. The source holds these as a separate data set.
Take `Cc1nnsc1C(=O)Nc1ccc(-n2nc(C(F)(F)F)cc2C(F)(F)F)cc1` [BTP-2]: the inhibition of proliferation result is recorded as “inhibits”.

The target of another assay is STIM1 and Orai1 in HEK293 cells (Homo sapiens, UniProt Q96D31).
STIM1 and Orai1 in HEK293 cells, sequence (Q96D31 whole entry): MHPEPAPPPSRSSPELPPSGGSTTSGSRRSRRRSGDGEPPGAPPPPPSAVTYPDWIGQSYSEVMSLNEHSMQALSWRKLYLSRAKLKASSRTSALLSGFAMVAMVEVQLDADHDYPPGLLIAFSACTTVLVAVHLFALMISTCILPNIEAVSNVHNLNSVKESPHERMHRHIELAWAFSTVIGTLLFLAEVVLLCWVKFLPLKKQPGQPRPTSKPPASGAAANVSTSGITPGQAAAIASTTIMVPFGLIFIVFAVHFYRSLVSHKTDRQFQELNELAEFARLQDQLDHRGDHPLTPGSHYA
Test: not given
To be noted: HEK293 cells coexpressing STIM1 and Orai1; cited from earlier work.
In the case of `NCCOB(c1ccccc1)c1ccccc1` [2-aminoethoxydiphenylborate], the “block of store-dependent Ca2+ entry” value is “completely blocked”.

(Values after patent US20110230536A1, “PHENYLPYRAZOLE INHIBITORS OF STORE OPERATED CALCIUM RELEASE” (CalciMedica, Inc., priority 2008, published 2011).)
